Assay results reported in patent US20260078103A1, “ISOQUINOLONES AS PI3K INHIBITORS” (OnKure, Inc., priority 2022, published 2026).
Like-named read-outs stand apart in the source and are kept apart here.

Experiments:
Format in all cases: cell-based
[1] = test system: phosphorylation of AKT (pAKT) in SKBR3 cells express WT PI3Ka; assay: In vitro cell pAKT (Ser473) HTRF, SKBR3 cells
Procedure, shortened: (§1)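 pAKT (Ser473) was quantified by HTRF in lysates from cells exposed 6 h at 37 °C to 10-point compound series, with T47D in insulin-supplemented RPMI/10% FBS and SKBR3 in McCoy's 5a/10% FBS. Controls: 0.1% DMSO (high) and 10 uM alpelisib (low). IC50 from sigmoidal curve fitting.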

[2] = test system: phosphorylation of AKT (pAKT) in T47D cells expressing mutant PI3Ka (H1047R); assay: In vitro cell pAKT (Ser473) HTRF, T47D cells
Procedure, shortened: as §1

[3] = test system: SKBR3 cells express WT PI3Ka; assay: In vitro cell proliferation, SKBR3 cells (CellTiter-Glo); conditions: inhibition of proliferation
Procedure, shortened: (§2)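 1,500 cells/well seeded onto pre-stamped 10-pt dilution plates; T47D in RPMI + 10% FBS + insulin 0.2 units/mL, SKBR3 in McCoys 5a + 10% FBS. 72 h, 37 °C, 5% CO2. CTG readout. 0% = 0.1% DMSO, 100% = 10 uM Alpelisib; sigmoidal fit gives EC50.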

[4] = test system: T47D cells expressing mutant PI3Ka (H1047R); assay: In vitro cell proliferation, T47D cells (CellTiter-Glo); conditions: inhibition of proliferation, read-out: Avg T-47D EC50
Procedure, shortened: as §2

[5] = Homo sapiens, SK-BR-3, cellular pAKT, 6 hours
[6] = Homo sapiens, T47D, 6 h, read-out: Avg T-47D IC50, cellular pAKT, T47D cells, mutant PI3Ka (H1047R), 6 hours
[7] = Homo sapiens, SK-BR-3, 6 h, cellular pAKT
[8] = Homo sapiens, T47D, 6 h, cellular pAKT, T47D cells, mutant PI3Ka (H1047R), 6 hours, read-out: Avg T-47D IC50
[9] = cellular pAKT, T47D cells, mutant PI3Ka (H1047R), 6 hours, read-out: Avg T-47D IC50

SMILES | IC50 [1, 5] [nM] | IC50 [2, 6] [nM] | EC50 ([3]; Homo sapiens, SK-BR-3, 72 h) [nM] | EC50 ([4]; Homo sapiens, T47D, 72 h) [nM] | IC50 [1, 7] [nM] | IC50 [2, 8] [nM] | IC50 ([1]; cellular pAKT, 6 hours) [nM] | IC50 [2, 9] [nM] | EC50 ([3]; 72 hours) [nM] | EC50 ([4]; 72 hours) [nM]
Cc1cc([C@@H](C)Nc2ccc(Cl)nc2C(=O)O)c2cc(N3CCN(c4ccc(F)cc4)CC3)n(C)c(=O)c2c1 [Example 24, (R)-6-chloro-3-((1-(3-(4-(4-fluorophenyl)piperazin-1-yl)-2,7-dimethyl-1-oxo-1,2-dihydroisoquinolin-5-yl)ethyl)amino)picolinic acid] | 2000 to 15000 | 1 to 500 | 2000 to 15000 | 1 to 500 |  |  |  |  |  | 
Cc1cc([C@@H](C)Nc2ccc(Cl)nc2C(=O)O)c2cc(N3CCN(Cc4ccc(F)cc4)CC3)n(C)c(=O)c2c1 [Example 25, (R)-6-chloro-3-((1-(3-(4-(4-fluorobenzyl)piperazin-1-yl)-2,7-dimethyl-1-oxo-1,2-dihydroisoquinolin-5-yl)ethyl)amino)picolinic acid] |  |  | 2000 to 15000 | 1 to 500 | 2000 to 15000 | 1 to 500 |  |  |  | 
Cc1cc([C@@H](C)Nc2ccc(Cl)nc2C(=O)O)c2cc(-c3ccc(-c4ccc(F)cc4)nc3)n(C)c(=O)c2c1 [Example 26, (R)-6-chloro-3-((1-(3-(6-(4-fluorophenyl)pyridin-3-yl)-2,7-dimethyl-1-oxo-1,2-dihydroisoquinolin-5-yl)ethyl)amino)picolinic acid] |  |  | 2000 to 15000 | 1 to 500 | 2000 to 15000 | 1 to 500 |  |  |  | 
Cc1cc([C@@H](C)Nc2ccc(Cl)nc2C(=O)O)c2cc(C3=CCN(CC(F)(F)F)CC3)n(C)c(=O)c2c1 [Example 27] |  |  | 2000 to 15000 | 1 to 500 | 2000 to 15000 | 1 to 500 |  |  |  | 
CCn1c(N2CCC(C)(C)CC2)cc2c(C(C)Nc3ccccc3C(=O)O)cc(C)cc2c1=O (centres unmarked) [Example 29, 2-((1-(3-(4,4-dimethylpiperidin-1-yl)-2-ethyl-7-methyl-1-oxo-1,2-dihydroisoquinolin-5-yl)ethyl)amino)benzoic acid] | > 15000 | > 15000 | > 15000 | 2000 to 15000 |  |  |  |  |  | 
Cc1cc([C@@H](C)Nc2ccccc2C(=O)O)c2cc(SCc3ccccc3)n(C)c(=O)c2c1 [Example 34, (R)-2-((1-(3-(benzylthio)-2,7-dimethyl-1-oxo-1,2-dihydroisoquinolin-5-yl)ethyl)amino)benzoic acid] | > 15000 | 1 to 500 | > 15000 | 1 to 500 |  |  |  |  |  | 
C[C@@H](Nc1cccc(F)c1C(=O)O)c1cc(F)cc2c(=O)n(C)c(C34CC(C(F)(F)F)(C3)C4)cc12 [Example 39, (R)-2-fluoro-6-((1-(7-fluoro-2-methyl-1-oxo-3-(3-(trifluoromethyl)bicyclo[1.1.1]pentan-1-yl)-1,2-dihydroisoquinolin-5-yl)ethyl)amino)benzoic acid] |  |  | > 15000 | 1 to 500 | > 15000 | 1 to 500 |  |  |  | 
Cc1cc([C@@H](C)Nc2ccccc2C(=O)O)c2cc(OCC(C)C)n(C)c(=O)c2c1 [Example 40, (R)-2-((1-(3-isobutoxy-2,7-dimethyl-1-oxo-1,2-dihydroisoquinolin-5-yl)ethyl)amino)benzoic acid] |  |  | > 15000 | 500 to 2000 | > 15000 | 1 to 500 |  |  |  | 
Cc1cc([C@@H](C)Nc2ccc(F)cc2C(=O)O)c2c(F)c(N3CCN(CC(F)(F)F)CC3)n(C)c(=O)c2c1 [Example 41, (R)-5-fluoro-2-((1-(4-fluoro-2,7-dimethyl-1-oxo-3-(4-(2,2,2-trifluoroethyl)piperazin-1-yl)-1,2-dihydroisoquinolin-5-yl)ethyl)amino)benzoic acid] |  |  | 2000 to 15000 | 1 to 500 | > 15000 | 1 to 500 |  |  |  | 
C[C@@H](Nc1ccccc1C(=O)O)c1cc(F)cc2c(=O)n(C)c(-c3cnc(-c4cc(=O)n(C)cc4F)c(F)c3)cc12 [Example 42, (R)-2-((1-(3-(3,5′-difluoro-1′-methyl-2′-oxo-1′,2′-dihydro-[2,4′-bipyridin]-5-yl)-7-fluoro-2-methyl-1-oxo-1,2-dihydroisoquinolin-5-yl)ethyl)amino)benzoic acid] |  |  | > 15000 | 500 to 2000 | > 15000 | 500 to 2000 |  |  |  | 
Cc1cc([C@@H](C)Nc2ccccc2C(=O)O)c2cc(C3CC3)n(C)c(=O)c2c1 [Example 43, (R)-2-((1-(3-cyclopropyl-2,7-dimethyl-1-oxo-1,2-dihydroisoquinolin-5-yl)ethyl)amino)benzoic acid] |  |  | > 15000 | 1 to 500 | > 15000 | 1 to 500 |  |  |  | 
CCON1CC2CCC(C1)N2c1cc2c([C@@H](C)Nc3ccccc3C(=O)O)cc(F)cc2c(=O)n1C [Example 44, 2-(((1R)-1-(3-(3-ethoxy-3,8-diazabicyclo[3.2.1]octan-8-yl)-7-fluoro-2-methyl-1-oxo-1,2-dihydroisoquinolin-5-yl)ethyl)amino)benzoic acid] |  |  | 2000 to 15000 | 1 to 500 | 2000 to 15000 | 1 to 500 |  |  |  | 
C[C@@H](Nc1ccccc1C(=O)O)c1cc(F)cc2c(=O)n(C)c(-c3cnc(C4(C5CC5)CC4)nc3)cc12 [Example 47, (R)-2-((1-(3-(2-([1,1′-bi(cyclopropan)]-1-yl)pyrimidin-5-yl)-7-fluoro-2-methyl-1-oxo-1,2-dihydroisoquinolin-5-yl)ethyl)amino)benzoic acid] |  |  | > 15000 | 1 to 500 | > 15000 | 1 to 500 |  |  |  | 
C[C@@H](Nc1ccccc1C(=O)O)c1cc(F)cc2c(=O)n(C)c(-c3cnc(Oc4cnn(C(F)F)c4)c(F)c3)cc12 [Example 48, (R)-2-((1-(3-(6-((1-(difluoromethyl)-1H-pyrazol-4-yl)oxy)-5-fluoropyridin-3-yl)-7-fluoro-2-methyl-1-oxo-1,2-dihydroisoquinolin-5-yl)ethyl)amino)benzoic acid] |  |  | > 15000 | 500 to 2000 | > 15000 | 1 to 500 |  |  |  | 
Cc1cc(C(C)Nc2ccccc2C(=O)O)c2cc(N3CC(Cl)C3)n(C)c(=O)c2c1 (centres unmarked) [Example 55] |  |  | > 15000 | 500 to 2000 | > 15000 | 1 to 500 |  |  |  | 
Cc1cc(C(C)Nc2ccccc2C(=O)O)c2cc(N3CC4(C3)CC(F)(F)C4)n(C)c(=O)c2c1 (centres unmarked) [Example 56] |  |  | > 15000 | 2000 to 15000 | > 15000 | 500 to 2000 |  |  |  | 
Cc1cc(C(C)Nc2ccccc2C(=O)O)c2cc(N3CC4(CC(C(F)(F)F)C4)C3)n(C)c(=O)c2c1 (centres unmarked) [Example 57] |  |  | > 15000 | 2000 to 15000 | > 15000 | 1 to 500 |  |  |  | 
Cc1cc(C(C)Nc2ccccc2C(=O)O)c2cc(N3CCn4c(C)nnc4C3)n(C)c(=O)c2c1 (centres unmarked) [Example 58] |  |  | > 15000 | > 15000 | > 15000 | > 15000 |  |  |  | 
Cc1cc(C(C)Nc2ccccc2C(=O)O)c2cc(N3CCN(C)CC3)n(C)c(=O)c2c1 (centres unmarked) [Example 59] |  |  | > 15000 | 500 to 2000 | > 15000 | 500 to 2000 |  |  |  | 
Cc1cc(C(C)Nc2ccccc2C(=O)O)c2cc(N3CCN(CC(F)(F)F)CC3)n(C)c(=O)c2c1 (centres unmarked) [Example 61] |  |  |  |  |  |  | > 15000 | 1 to 500 | > 15000 | 500 to 2000
Cc1cc(C(C)Nc2ccccc2C(=O)O)c2cc(N3CCC4(CCCC4)CC3)n(C)c(=O)c2c1 (centres unmarked) [Example 62] |  |  | > 15000 | 500 to 2000 | > 15000 | 500 to 2000 |  |  |  | 
Cc1cc(C(C)Nc2ccccc2C(=O)O)c2cc(N3CCC4(CCC4)CC3)n(C)c(=O)c2c1 (centres unmarked) [Example 63] |  |  | > 15000 | 2000 to 15000 | > 15000 | 1 to 500 |  |  |  | 
Cc1cc(C(C)Nc2ccccc2C(=O)O)c2cc(N3CC[C@H](c4ccccc4)C3)n(C)c(=O)c2c1 (some centres unmarked) [Example 64] |  |  | > 15000 | 500 to 2000 | > 15000 | 1 to 500 |  |  |  | 
Cc1cc(C(C)Nc2ccccc2C(=O)O)c2cc(N3Cc4cccnc4C3)n(C)c(=O)c2c1 (centres unmarked) [Example 65] |  |  | > 15000 | 500 to 2000 | > 15000 | 1 to 500 |  |  |  | 
Cc1cc(C(C)Nc2ccccc2C(=O)O)c2cc(N3Cc4ccncc4C3)n(C)c(=O)c2c1 (centres unmarked) [Example 66] |  |  | > 15000 | 1 to 500 | > 15000 | 1 to 500 |  |  |  | 
Cc1cc(C(C)Nc2ccccc2C(=O)O)c2cc(N3Cc4cccc(C(F)(F)F)c4C3)n(C)c(=O)c2c1 (centres unmarked) [Example 67] |  |  |  |  |  |  | > 15000 | 1 to 500 | > 15000 | 500 to 2000
Cc1cc(C(C)Nc2ccccc2C(=O)O)c2cc(-c3ccc(C)nc3)n(C)c(=O)c2c1 (centres unmarked) [Example 68] |  |  | > 15000 | 500 to 2000 | > 15000 | 1 to 500 |  |  |  | 
Cc1cc(C(C)Nc2ccccc2C(=O)O)c2cc(N3C4CCCC3CC4)n(C)c(=O)c2c1 (centres unmarked) [Example 69] |  |  | > 15000 | 500 to 2000 | > 15000 | 1 to 500 |  |  |  | 
Cc1cc(C(C)Nc2ccccc2C(=O)O)c2cc(N3C[C@@H]4[C@@H](C#N)[C@@H]4C3)n(C)c(=O)c2c1 (some centres unmarked) [Example 70] |  |  | > 15000 | 500 to 2000 | > 15000 | 500 to 2000 |  |  |  | 
